In patent US20260306421A1, “SYSTEMS AND METHODS FOR TRANSDERMAN PATCH DELIVERY” (VITAMAX PATCH WHOLESALER LLC, priority 2022, published 2026):
Values belong to the molecule of their own block, whether it stands above or below them.

Tests used:
[1] = Visual skin damage / necrosis after iron permeation study; conditions: after 24 h permeation study, porcine skin
Source text: (§1) On the day of the experiment, the skin was defrosted. For the full thickness studies, the subcutaneous fat removed (2.5 mm thick) and for the dermatomes skin studies the tissued was dermatomed to a 1 mm thickness. The tissue was cut into the appropriate size sections (2.19±0.21 cm^2) and mounted between donor and receiver compartments of Franz diffusion cells with the SC facing the donor compartment. Each cell was sealed using parafilm and 12 mm magnetic stir bars were placed into the receiver compartment. The receiver compartment was filled with the desired receiver solution and the Franz cells were placed in a stirring water bath at 37° C. Cells were allowed to equilibrate for 30 min after which the receiver fluid using was mixed using a syringe and the “zero hour” sample was withdrawn from the arm and compensate with the same volume of fresh pre-warmed solution. Following zero-hour sampling, the donor solution was placed in the donor compartment and covered with parafilm. Samples were withdrawn and compensated with fresh receiver solution at set time intervals for a 24 h duration. The iron in each sample was quantified using the method specified in Section 2.2.2.1. […] There was no matrix interference noted in the assay. […] For iron maltol a 80:20 PG:water receiver was used along with a complementary calibration for iron assay (iron chloride in PG:water). The donor solution for the iron maltol made at pH 1.6 was 200 μL of 100 mg/mL complex in Transcutul®, for iron maltol made at pH 4 the donor solution was 200 μL of 23 mg/mL complex in PG and for iron maltol made at pH 4 the donor solution was 150 μL of 16 mg/mL complex in 7.5:1.5:1:1 water:PG:dimethicone:ethanol.

[2] = Solubility of iron chloride hexahydrate and iron complexes (visual / assayed); assay type: physicochemical
Description: Due to the high number of test samples (6 complexes plus the starting material, iron chloride hexahydrate) a visual solubility screen was used to screen the solubility in a range of solvents. […] Quantitative determination was performed by either incubating the complex in excess in the solvent using a shaking 37° C. water bath for 48 h or sonicating it for 2 hours at 40° C. or leaving overnight on a 50° C. hot plate. Once incubation period was completed, the exact solubility in a particular solvent was assayed (using the iron assay) after centrifugation (i.e. assay iron content in the supernatant using the Ferrozine® assay).

[3] = Franz cell porcine skin permeation and deposition of iron from solutions; assay type: in vitro ADME; conditions: for permeation and deposition in the skin: solutions; for total delivered dose: PG solution
Description: The permeation of the iron complexes from the formulations into and across porcine skin mounted on Franz cells with a receiver fluid was tested (FIG. 4). This was based on the principles of the FDA, SUPAC-SS guidelines. The developed colorimetric assay method was used for iron quantification.
as §1
Once the permeation studies were completed the donor solutions were collected into bottles containing the extraction solution. This was followed by skin surface cleaning using four cotton buds, the first two were wetted by the extraction fluid and the second two were used dry. Then two tape striping procedures were performed using 2 tapes to remove any iron on the skin surface with the tape being added to the donor solution and cotton buds in the donor recover vial. For the full skin thickness skin, the Stratum corneum, the dermal and the epidermal layers were isolated in the same way as the recovery method (Section 2.3.2.1). Extraction fluid (50:50 PBS:ethanol) was then added to the tissues, 4 mL to the Stratum corneum, and 2 mL for each of the epidermis and dermis. For the dermatomed skin the whole skin section was chopped up and placed in a 2 mL extraction fluid (ethanol).
The Stratum corneum samples were placed on vibrating plate for a minimum of 2 h to extract the iron and then vortexed prior assay. The epidermis, dermis or dermatomed samples however were incubated with the extraction fluid for 1 h after which were transferred to Eppendorf tubes, one stainless steel 5 mm bead was added and the samples were loaded into the TissuLyser II (Qiagen, Germany) for 30-15 min at 30 Hz. The samples were then centrifuged (5 min at 13,000 rpm) and supernatant assayed.

[4] = Iron complex adhesive compatibility and loading screen; assay type: physicochemical
Description: Pre-formulation studies were performed to determine the compatibility of the iron complexes with a range of transdermal patch adhesives (Table 15).
The compatibility of the complexes with the patch adhesives was assessed by mixing and visually checking the clarity of the mixture.
In the adhesives that were computable with the iron complexes the maximum drug loading of the complexes in the adhesive following solvent evaporation was determined. This was achieved by mixing the drug, adhesive and co-solvents until a clear solution was obtained at different drug:adhesive ratios and placing few drops of the mixture onto the patch backing sheet, leaving it to dry for 3-4 h, and examining the formed film on the surface of the backings for evidence of drug crystals.
Following complete drying of the solvents, the adhesive layer was covered by a release liner, compressed, and then cut using 34 mm circular manual die cutter (FIG. 23).

[5] = PG, 370 mg elemental iron dosed, 2 cm^2, 24 h

Solubility of complex (visual) ([2]; PEG400): <6 mg/mg/mL | Solubility of complex (visual) ([2]; PG): <6 mg/mg/mL | Solubility of complex ([2]; Transcutul): 100 mg/mg/mL | Solubility, equivalent elemental iron ([2]; Transcutul): to 13 mg/ mg/mL | permeation and deposition in the skin ([3]; 24 h): permeated and deposited in the skin
SMILES: Cc1occc(=O)c1[O-].Cc1occc(=O)c1[O-].Cc1occc(=O)c1[O-].[Fe+3] [Iron maltol made at pH 1.6, iron maltol]
skin damage / necrosis [1]: caused skin necrosis

SMILES: O.O.O.O.O.O.[Cl-].[Cl-].[Cl-].[Fe+3] [Iron chloride hexahydrate, reference compound]
skin damage / necrosis [1]: necrosis of the skin | Solubility, equivalent elemental iron ([2]; PG): 370 mg/mL | Solubility ([2]; PG, as iron chloride hexahydrate): 1400 mg/mL | elemental iron permeated the skin [3, 5]: 180 mg | elemental iron permeated, percent of dose [3, 5]: 48% | dose above the desired target (4.6 mg) ([3]; PG, 24 h): 40 times

Solubility of complex (visual) ([2]; Chloroform): ≥20 mg/mL Iron ethyl maltol* | Solubility of complex (visual) ([2]; Ethyl acetate): <8 mg/mL Iron ethyl maltol* | Solubility of complex (visual) ([2]; Glycerol): <8 mg/mL Iron ethyl maltol* | Solubility of complex (visual) ([2]; Hexane): <8 mg/mL Iron ethyl maltol* | Solubility of complex (visual) ([2]; Liquid Paraffin): <8 mg/mL Iron ethyl maltol* | Solubility of complex (visual) ([2]; Methanol): ≥20 mg/mL Iron ethyl maltol* | Solubility of complex (visual) ([2]; Miglyol): <8 mg/mL Iron ethyl maltol* | Solubility of complex (visual) ([2]; Oleic acid): <8 mg/mL Iron ethyl maltol* | Solubility of complex (visual) ([2]; Transcutul): <8 mg/mL Iron ethyl maltol* | Solubility of complex (visual) ([2]; Triaceten): <8 mg/mL Iron ethyl maltol* | compatibility with adhesives [4]: only compatible with DURO-TAK 9301 | (maximum) complex loading achieved in adhesive ([4]; methanol stock solution 10 mg/mL): 4% | complex loading achieved in adhesive patch ([4]; methanol stock solution 18 mg/mL): 8.5% | total delivered dose ([3]; 24 h): 12 μg/cm^2
SMILES: CCc1occc(=O)c1[O-].CCc1occc(=O)c1[O-].CCc1occc(=O)c1[O-].[Fe+3] [Iron ethyl maltol, iron ethyl maltol]
skin damage / necrosis [1]: did not cause any visible skin damage

Solubility of complex ([2]; PEG400): 20 mg/mg/mL | Solubility, equivalent elemental iron ([2]; PEG400): to 2.7 mg/ mg/mL | Solubility of complex ([2]; PG): 17 ± 5 mg/mg/mL | Solubility, equivalent elemental iron ([2]; PG): to 2.3 ± 0.6 mg/mL | Solubility ([2]; PG and PEG400 (conclusions)): 18 mg/mL | Solubility of complex (visual) ([2]; Transcutul): <6 mg/mL | total delivered dose ([3]; 24 h): 65 μg/cm^2 | permeation and deposition in the skin ([3]; 24 h): permeated and deposited in the skin
SMILES: Cc1occc(=O)c1[O-].Cc1occc(=O)c1[O-].Cc1occc(=O)c1[O-].[Fe+3] [Iron maltol made at pH 4, iron maltol]
skin damage / necrosis [1]: without inducing skin necrosis
